This is an account of results in patent publication EP4818187A1, “COMPOUND AND USE THEREOF” (Ganzhou Hemay Pharmaceutical, Co., Ltd, priority 2023, dated 2025).

SMILES strings stand for the structures. Marks after values point to notes of the source that are not given here.

For data set [1], the system named is Fadu (human pharyngeal squamous cell carcinoma). Put plainly: In vitro inhibitory effect against human tumor cells (MTT). The data set is classed as cell-based. Conditions: 72 h, 3 days. As to the method: (§1) Cells were cultured with 5% CO2 at 37°C and saturated humidity until they reached a logarithmic growth phase (usually adherent cells were nearly fully confluent). After removing adherent cells by trypsin/EDTA digestion, the cells were collected for subsequent experiments.
(§2) The cells were inoculated into a 96-well cell culture plate (hereinafter referred to as the 96-well plate) based on the cell count shown in Table 2, cultured overnight to achieve cell adherence, and then, after different concentrations of the test compound were added, further cultured for a total of 3 days. Finally, the total cell protein in the assay wells was assayed by SRB, or the cell viability was assessed by MTT:
(§3) 2.2 Assaying cell viability by MTT: the modification is based on the method in the literature (J. Carmichael, W. DeGraff, A. Gazdar et al., Evaluation of a tetrazolium-based semiautomated colorimetric assay: assessment of chemosensitivity testing. Cancer Research. 1987, 47: 936-942). Specific method: For well-adherent cells: the medium was pipetted out, 100 µL of a basal medium containing 0.5 mg/mL MTT (medium free of fetal bovine serum (FBS) and other additives) was added to each well, and culture was continued for additional 3 h. The MTT-containing basal medium was pipetted out, and 100 µL of DMSO was added to each well to dissolve formazan, followed by assay at a wavelength of 490 nm.
(§4) For poorly-adherent cells: MTT solution was directly added to a concentration of 0.5 mg/mL, culture was continued for additional 3 h, and an equal volume of triple solvent was added to the system to dissolve formazan, followed by assay at a wavelength of 570 nm.
(§5) 2.3: 1-2 mg of β-glucuronidase was weighed, and dissolved in PBS to prepare 2 mg/mL stock solution. Prior to use, the stock solution was diluted with a complete medium to prepare 12.5 µg/mL enzyme working solution. For assay wells requiring the enzyme, 80 µL of the enzyme working solution was added, with the β-glucuronidase at a concentration of 1 µg/well; and for assay wells not requiring the enzyme, 80 µL of the complete medium was added.
(§6) 1-3 mg of the test compound was weighed, and dissolved in DMSO to prepare 20 mM stock solution. The stock solution was diluted in a 3-fold gradient with DMSO, then diluted 100-fold with RPMI1640 basal medium to obtain 10× working solutions, with a total of 8 concentrations. 20 µL of the 10× working solutions were add to the assay wells, with the final volume of each well of 200 µL, and with the DMSO at a concentration of 0.1%.
(§7) 2.4 Calculation of inhibitory activity of compound: the experiment includes a compound test group, a compound-free positive solvent control group (PC), and a negative solvent control group (NC) without cells and the compound. Inhibition rate = [1−(testvalue−NCmean)/(PCmean−NCmean)] × 100% [formula]
(§8) The mean and SD of the inhibition rate were obtained from replicate assay wells. A curve was plotted with the compound concentrations distributed in a logarithmic form as the abscissa and with the mean inhibition rates as the ordinate, and was fitted with a 4-parameter logistic equation. The compound concentration corresponding to 50% inhibition rate on the curve is the IC50 value. Table 2: Culture medium formulation and cell inoculation concentration for human tumor cell lines

Data set [2] relates to HCT116 (human colorectal cancer). The description is as above. The format is cell-based. Conditions: HCT-116, 72 h, 3 days. As to the method:
as §1, §2, §3, §4, §5, §6, §7, §8

The subject of data set [3] is NCI-H1975 (human non-small cell lung cancer). The data set is described as above. The note with it: NCI-H1975, 72 h, 3 days. The data set is classed as cell-based. As to the method: as §1, §2, §3, §4, §5, §6, §7, §8
For data set [4], the system named is SK-OV-3 (human ovarian cancer). Described as above. The data set is classed as cell-based. Conditions: SK-OV-3, 72 h, SK-OV-3, MTT, 3 days. The method, then:
as §1, §2, §3, §4, §5, §6, §7, §8

Data set [5] has as its system 22RV1 (human prostate cancer). The data set is described as follows: In vitro inhibitory effect against human tumor cells (SRB). The data set is classed as cell-based. The note with it: 22Rv1, 72 h, 22RV1, SRB, 3 days. The method, then:
as §1, §2
(§9) 2.1 Assaying total cell protein by SRB: the modification is based on the method in the literature (V. Vichai and K. Kirtikara. Sulforhodamine B colorimetric assay for cytotoxicity screening. Nature Protocols. 2006, 1: 1112-1116). Specific method: the culture medium was pipetted out from the wells, the cells were fixed with 10% trichloroacetic acid for more than 1 h, and trichloroacetic acid was removed; the cells were washed with H2O, and stained with 0.4% SRB for 15-30 min; after excess SRB was removed, the cells were washed with 1% acetic acid; 100 µl of 10 mM tris(trihydroxymethylaminomethane) was added to dissolve the protein-bound SRB, followed by assay at a wavelength of 570 nm.
as §5, §6, §7, §8

The test system of data set [6] is A375 (human malignant melanoma). The description is as above. The format is cell-based. Conditions: A-375, 72 h, 3 days. The method, then: as §1, §2, §9, §5, §6, §7, §8
The test system of data set [7] is HepG2 (human liver cancer cell). The description is as above. The note with it: HepG2, 72 h, 3 days. The format is cell-based. The method, then: as §1, §2, §9, §5, §6, §7, §8
For data set [8], the system named is BxPC-3 (human pancreatic cancer in situ). Put plainly: In vitro inhibitory effect against human tumor cells (MTT or SRB). The format is cell-based. The note with it: BXPC-3, 72 h, BxPC-3, test method printed MTT (head: SRB), 3 days. As to the method: as §1, §2, §9, §3, §4, §5, §6, §7, §8
Data set [9] has as its system human ovarian cancer SK-OV-3. Put plainly: Biological Example 5: in vivo xenograft model of human ovarian cancer SK-OV-3. The arrangement: species or system Balb/c-nu nude mice. Conditions: SK-OV-3 xenograft, nude mice.
Data set [10] concerns human non-small cell lung cancer NCI-H1975. Put plainly: Biological Example 9: in vivo xenograft model of human non-small cell lung cancer NCI-H1975. The arrangement: species or system Balb/c-nu nude mice. The note with it: nude mice.
Data set [11] has as its system MDA-MB-468 (human triple-negative breast cancer). Put plainly: In vitro inhibitory effect against human tumor cells (SRB). The data set is classed as cell-based. Conditions: MDA-MB-468, 72 h, MDA-MB-468, SRB, 3 days. The method, then:
as §1, §2, §9, §5, §6, §7, §8

Setting [12] is: With addition of βGU (1 µg/well).

As for `CC[C@H](C)[C@@H]([C@@H](CC(=O)N1CCC[C@H]1[C@H](OC)[C@@H](C)C(=O)N[C@H](C)[C@@H](O)c1ccccc1)OC)N(C)C(=O)[C@@H](NC(=O)[C@H](C(C)C)[N+](C)(CC)Cc1ccc(O[C@@H]2O[C@H](C(=O)[O-])[C@@H](O)[C@H](O)[C@H]2O)cc1OCc1cn(CCOCCC(=O)Nc2ccc(-c3ccc(/N=N/c4ccc5c(S(=O)(=O)[O-])cc(S(=O)(=O)[O-])c(N)c5c4O)c(C)c3)cc2C)nn1)C(C)C.[Na+].[Na+]` (stereo partly drawn) [Example compound 8], the half-inhibitory concentration (IC50) in [1] (setting [12]) amounted to 0.79 nM; in [1] (βGU-free), 19 nM; in data set [2] (setting [12]), 2.1 nM; in data set [2] (βGU-free) it was 51 nM; in data set [3] (setting [12]), 3.4 nM; in [3] (βGU-free) it was 72 nM. The IC50 in [4] (setting [12]) is 2.6 nM; in data set [4] (βGU-free), 61 nM; in data set [5] (setting [12]), 3 nM; in data set [5] (βGU-free) it was 63 nM; in data set [6] (setting [12]) it was 2.4 nM; in [6] (βGU-free), 43 nM. The IC50 is 4 nM in data set [7] (setting [12]), 86 nM in data set [7] (βGU-free), 0.54 nM in data set [8] (setting [12]) and 21 nM in data set [8] (βGU-free). Moreover, the “Final body weight change (%)” value in [9] (0.8 mg/kg i.v. qw×3) is listed as 4.6%; in data set [10] (0.8 mg/kg i.v. qw×3), 4%. The “Maximum body weight change (%)” value in data set [9] (0.8 mg/kg i.v. qw×3) was 4.6, d21%; in [10] (0.8 mg/kg i.v. qw×3), 4.3, d17%. For the same compound, the “Relative volume RTV (x±S.D.)” value in data set [9] (0.8 mg/kg i.v. qw×3) was determined as 0.08±0.02; in [10] (0.8 mg/kg i.v. qw×3), 0.19±0.27. For the same compound, the “T/C (%)” value came to 0.7% in data set [9] (0.8 mg/kg i.v. qw×3) and 2.5% in data set [10] (0.8 mg/kg i.v. qw×3). The “Tumor inhibition rate (%)” value stood at 99.7% in [9] (0.8 mg/kg i.v. qw×3) and 98.3% in data set [10] (0.8 mg/kg i.v. qw×3). For the same compound, the “Tumor weight (g, x±S.D.)” value in data set [9] (0.8 mg/kg i.v. qw×3) is 0.005 ± 0.003 g; in data set [10] (0.8 mg/kg i.v. qw×3) it was 0.022±0.038* * g. Moreover, the Animal death entry in data set [9] (0.8 mg/kg i.v. qw×3, group G5, stated to be independent of drug administration (biting and fighting injury)) is “One animal in group G5 died on day 18”. The “Body weight (g, x±S.D.) End” value in data set [9] (0.8 mg/kg i.v. qw×3, End) was 24.1 ± 1.6 g. In addition, the “Body weight (g, x±S.D.) Start” value in data set [9] (0.8 mg/kg i.v. qw×3, Start) came out at 22.9 ± 1.6 g; in [10] (0.8 mg/kg i.v. qw×3, Start) it was 25.3 ± 1.1 g. For the same compound, the “Body weight (g, x±S.D.) End 24d” value in [10] (0.8 mg/kg i.v. qw×3, End 24d) was found to be 26.3 ± 1.5 g.
Turning to `CC[C@H](C)[C@@H]([C@@H](CC(=O)N1CCC[C@H]1[C@H](OC)[C@@H](C)C(=O)N[C@H](C)[C@@H](O)c1ccccc1)OC)N(C)C(=O)[C@@H](NC(=O)[C@H](C(C)C)N(C)Cc1ccc(O[C@@H]2O[C@H](C(=O)O)[C@@H](O)[C@H](O)[C@H]2O)cc1OCc1cn(CCCCCC(=O)Nc2ccc(-c3ccc(/N=N/c4ccc5c(S(=O)(=O)O)cc(S(=O)(=O)O)c(N)c5c4O)c(C)c3)cc2C)nn1)C(C)C` [Example compound 3], the IC50 is 7.8 nM in data set [1] (setting [12]); 159 nM in data set [1] (βGU-free); 0.77 nM in [11] (setting [12]); 50 nM in data set [11] (βGU-free); 9.7 nM in data set [8] (setting [12]); 106 nM in [8] (βGU-free).
